# From patent publication US5939094A (priority 1996, dated 1999)
# Read-outs that look alike come from different tables or passages of the source.
# Experiments:
# [1] = Description: Human skin samples were obtained from white female patients undergoing breast reduction surgery and prepared for in vitro permeation studies. Samples were stratum corneum from breasts of patients (Sample A) and (Samples B & C). A 2.0 cm^2 section of the skin tissue was placed in a Franz cell holder and maintained under phosphate buffered saline (PBS: 0.01M phosphate, 0.9% NaCl, pH 6.0) until testing. PBS (6.8 to 7.3 ml) was placed on the receptor side of the Franz cell. […] The cell was incubated at 35±1° C. A 250 μl sample was taken from the receptor medium at the following times: 0, 1/2, 1, 2, 4, and 6 hours. An equal volume of PBS was replaced each time a sample was withdrawn.
# Samples were pre-filtered (0.45 μm) prior to injection. Samples (50 μl) were injected on an Altima (Alltech Associates) C18 column (15 cm×4.3 mm) with guard column. The mobile phase consisted of a 60:40 mixture of 5 mM sodium dodecylsulfate in 1 mM NH4 PO4 buffer, pH 3.0 and acetonitrile.
# [2] = system: skin; conditions: rabbit, in vivo, 0.5 mg/kg
# [3] = rabbit
# [4] = man, cited from earlier work
# [5] = administered in a cream; cited from earlier work
# [6] = cited from earlier work
# [7] = in vivo; conditions: rabbit, 0.5 mg/kg; for AUC: AUC (area under the concentration vs time curve); for MRT: MRT (mean residence time)
# [8] = emulsions with apomorphine HCl and acrylic acid polymer gels, pH 7.6
# [9] = system: Parkinson's disease; conditions: chronic oral levodopa, after initial 3-6 years; cited from earlier work
# [10] = in vivo, topical or ocular, 0.5 mg/kg
# [11] = subcutaneous, 0.5 mg/kg, n=6, mean
# [12] = sc, model-dependent, subcutaneous, n=6, mean
# [13] = topical or ocular, model-independent
compound,measurement,setting,value
"CN1CCc2cccc3c2[C@H]1Cc1ccc(O)c(O)c1-3 [Apomorphine, apomorphine]","FLUX, AVERAGE",[1],1.61 μg/cm^2 /hr
same,"In vitro transdermal permeation, TIME 0 hours",[1],0
same,"In vitro transdermal permeation, TIME 0 hours, AVERAGE",[1],0
same,"In vitro transdermal permeation, TIME 0.5 hours, AVERAGE",[1],0.44
same,"In vitro transdermal permeation, TIME 1 hour, AVERAGE",[1],2.05
same,"In vitro transdermal permeation, TIME 2 hours, AVERAGE",[1],2.93
same,"In vitro transdermal permeation, TIME 4 hours, AVERAGE",[1],7.03
same,"In vitro transdermal permeation, TIME 6 hours, AVERAGE",[1],6.30
same,local adverse effect,[2],No local adverse effect
same,Time for absorption of 10% of the drug,[3]; in vivo,11.4 ± 3.4 min
same,Time for absorption of 50% of the drug,[3]; in vivo,105.7 ± 23.9 min
same,absorption of the drug after percutaneous administration,"[3]; in vivo, 0.5 mg/kg",absorption of the drug in all tested animals
same,bioequivalence (F) of percutaneous route vs subcutaneous administration,"[3]; in vivo, 0.5 mg/kg",35%
same,"duration of the first, rapid absorption phase","[3]; in vivo, 0.5 mg/kg",1 h
same,plasma concentration between the fourth and the fifth hour,"[3]; in vivo, 0.5 mg/kg",an increase in the plasma concentration
same,plasma levels after removal of the gel,"[3]; in vivo, 0.5 mg/kg",decreased
same,time until which absorption persisted,"[3]; in vivo, 0.5 mg/kg",450 min
same,Time for absorption of 10% of the drug,"[3]; in vivo, sc",4.0 ± 0.7 min
same,Time for absorption of 50% of the drug,"[3]; in vivo, sc",19.9 ± 2.9 min
same,absorption of the available amount of the drug after 150 minutes,"[3]; in vivo, sc, 0.5 mg/kg",practically complete
same,k12 (transfer rate constant),"[3]; in vivo, sc, 0.5 mg/kg",0.005 L/min
same,k13 (transfer rate constant),"[3]; in vivo, sc, 0.5 mg/kg",0.057 L/min
same,k21 (transfer rate constant),"[3]; in vivo, sc, 0.5 mg/kg",0.027 L/min
same,ka (exponent of the fitted function),"[3]; in vivo, sc, 0.5 mg/kg",0.088 L/min
same,tmax (time to peak plasma concentration),"[3]; in vivo, sc, 0.5 mg/kg",25.8 ± 4.9 min
same,α (exponent of the fitted function),"[3]; in vivo, sc, 0.5 mg/kg",0.044 L/min
same,plasma level plateau,[3]; [10],10 to 15 ng/mL
same,stable mean plasma level after the second hour,[3]; [10],10 ng/mL
same,tmax (time to peak plasma concentration),[3]; [10],29.4 ± 7.8 min
same,"Cl, comparison of routes","[3]; subcutaneous vs percutaneous, 0.5 mg/kg",not different between the two routes
same,A (coefficient of the fitted function),[3]; [11],712 ng/mL
same,B (coefficient of the fitted function),[3]; [11],298 ng/mL
same,C0 (coefficient of the fitted function),[3]; [11],"1,010 ng/ml"
same,Vd (mean),[4]; i.v. injection,2 L/kg
same,Vd (mean),[4]; subcutaneous injection,2 L/kg
same,tmax (range),[4]; subcutaneous injection,7 to 16 min
same,plasma levels of apomorphine,[5],No detectable plasma levels
same,duration of action,"[6]; Parkinson's disease, movement disorders",short duration of action
same,adverse effects of oral or sublingual administration,[6]; oral or sublingual,"stomatitis, and the development of buccal ulcers"
same,breakdown in the liver,[6]; oral or sublingual,breakdown of the drug in the liver
same,CL/F,[7]; sc,31 ± 5 mL/min/kg
same,Cmax,[7]; sc,331 ± 46 ng/mL
same,Tmax,[7]; sc,25.8 min
same,concentration at 4 h,[7]; sc,3 ± 1 ng/mL
same,k el,[7]; sc,0.00035 s⁻¹
same,AUC,[7]; [12],309 ng·h/mL
same,AUC,"[7]; sc, model-independent",297 ng·h/mL
same,MRT,[7]; [12],52 min
same,MRT,"[7]; sc, model-independent",50 min
same,Vd/F,"[7]; sc, Vd (apparent volume of distribution)",1.45 ± 0.12 L/kg
same,Vd/F,"[7]; sc, Vdss, model-dependent",1.1 ± 0.3 L/kg
same,CL/F,[7]; topical or ocular,37 ± 1 mL/min/kg
same,Cmax,[7]; topical or ocular,56 ± 12 ng/mL
same,Tmax,[7]; topical or ocular,29.4 min
same,k el,[7]; topical or ocular,0.000233 s⁻¹
same,AUC,[7]; [13],104 ng·h/mL
same,MRT,[7]; [13],168 min
same,Vd/F,"[7]; topical or ocular, Vd (apparent volume of distribution)",2.72 ± 0.36 L/kg
N[C@@H](CCC(=O)N[C@@H](CS)C(=O)NCC(=O)O)C(=O)O [glutathione],antioxidant suitability for apomorphine HCl emulsions and gels,[8],acceptable antioxidant
N[C@@H](Cc1ccc(O)c(O)c1)C(=O)O [levodopa],patients with movement abnormalities,[9],40-60 % of patients
